Experiment [1] concerns Bead sorted CD34+ MNC from patients over 55 years of age. Nature of the experiment: FACS quantification of phenotypical HSC (HSPCs) in CD34+ MNC after 72 hours in HSC maintenance cultures. The format is cell-based, human. The note with it: for long-term HSCs (LT-HSC; CD90+, CD49f+, CD34+, CD38−, Lin-): short term ex vivo culture vs vehicle (FIG. 17). As to the method:
FIG. 15. Representative FACS data and gating strategy. Bead sorted CD34+ MNC from patients over 55 years of age were treated with compounds 77.1, 77.43, 77.36, B13, B19 or vehicle control for 72 hours in HSC maintenance cultures. The experimental readout is quantification of phenotypical HSC (HSPCs) by FACS analysis. […] Results also identified a positive trend in HSC number from a HC derived specimen.

The subject of another experiment is Ctrl and L2AKO HSC. In words: Colony formation and serial re-plating assay with Ctrl and L2AKO HSC with supplemented media. It is filed as cell-based, mouse. The text has this:
Colony formation and serial re-plating assays. […] Colonies were scored after 10 to 12 days for mouse and 14 to 16 days for human cells using an Inverted Infinity and Phase Contrast Microscope (Fisher Scientific).

Experiment [2] has as its system CMA in HSC from KFERQ-Dendra mice. In words: KFERQ-Dendra CMA reporter in HSC after in vivo activation. Also on record: species or system mouse. The text has this: Mice. Hematopoietic system specific L2A KO mice were created by crossing C57BL/6 Vav-iCre mice with C57BL/6 L2Af/f mice. […] For the aging studies, 3-4 months (labeled as 4 m) and 25-30 m (labeled as >25 m) male mice were used in the young and old group, respectively. KFERQ-Dendra2 transgenic mice and KFERQ-Dendra mice defective in CMA (KFERQ-Dendra-L2AKO) were generated as described before. […] Young and old controls were similarly injected with tamoxifen. […] KFERQ-Dendra mice with extra copy of human L2A (KFERQ-Dendra-hL2AOE) were generated by breeding KFERQ-Dendra male mice with hL2AOE mice. […] Bone marrow was analyzed at the same times. Data is from the analysis 8 days post-injection, unless otherwise specified. For serial 5FU injections, mice were injected every week and 7 days post injection blood was taken and blood counts measured as above and dead mice and time of death were registered. […] The CMA activator (CA 20 mg/Kg b.w. per mouse day for 2 months) was administered orally in the form of sucralose gelatin agar pills.
Immunofluorescence staining. HSC or myeloid progenitor cells were directly sorted into 16-well slides pre-coated with Cell-Tak Cell Tissue Adhesive (Coming, 354240) and then fixed with 4% PFA for 15 min at room temperature (RT). For LAMP2A, LAMP1, total human LAMP2 and FADS2 staining, slides were washed with PBS and incubated with blocking buffer (5% goat serum/0.3% TrionX-100 in PBS) for 1 hour at RT and incubated ovemight at 4° C. with the first antibody diluted in 1% BSA/0.3% TritonX-100 followed by 40 min incubation at RT with fluorescence-conjugated secondary antibodies. Cells were washed 3 times with PBS and mounted with mounting medium with DAPI (Southern biotech). […] Oxidized proteins were detected with OxyICC Oxidized Protein Detection Kit from Sigma (S7350) and protein inclusions were detected with PROTEOSTAT Aggresome detection kit from ENZO (ENZ-51035) following manufacturer's instructions. […] For analysis of CMA activity using direct fluorescence and the KFERQ-Dendra CMA reporter, cells isolated from KFERQ-Dendra2 transgenic mice were fixed with 2% PFA for 5 min at RT and mounted for direct puncta counting or subjected for immunofluorescence as described above. Quantification was performed in TIFF converted images upon thresholding using the 3D object counter tool of Image J software (NIH). Average number of puncta per cell was determined for each of the cells in a field and at least 3 different fields per animal were counted. Where indicated, we also calculated the percentage of cells active for CMA, defined as those with at least two Dendra positive puncta. […] CMA flux was calculated as the increase in number of Dendra positive puncta upon leupeptin treatment. […]

For a further experiment, the system named is HSC from old (22 m) mice. The note with it: daily injections of GLA (1mg/kg bw) for 7 weeks vs saline.
The subject of experiment [3] is human CD34+ cells from old (>65 year) multi-myeloma patients. The following applies: CD34+ cells from old (>65 years) patients, ex vivo GLA.
From the text: Human hematopoietic stem and progenitor cells. Mobilized peripheral blood from multiple myeloma patients (59-71 years old) was enriched for mononuclear cells by density gradient centrifugation using Ficoll-Paque PLUS (GE Healthcare). Mono-nuclear cells were further enriched for CD34+ cells using immunomagnetic bead sorting (CD34 MicroBead Kit, human; Miltenyi Biotec) according to the manufacturer's protocol. The isolated CD34+cells were then used for LTC-IC or colony formation assays. LTC-IC assay. To assess LTC-IC frequencies, serial dilutions of FACS-sorted mouse Lin-Sca-l+c-Kit+ (LSK) cells or CD34+enriched human HSPCs were plated in MyeloCult [MUT] for mouse or MyeloCult [MUT] for human ([sequence] Technologies) mixed at 50:50 ratio with primary mouse stroma cell-conditioned medium or with HS5-conditioned medium for human cells. For each cell dose (1:10, 1:20, 1:40, 1:80, 1:160 for mouse LSK cells, 1:50, 1:100, 1:200, 1:400, 1:800 for human HSPC), 10 technical replicates were performed. […] For CFU-C counting, in the case of mouse samples, wells containing any type of colonies were scored as positive, while in the case of human samples, only wells with GEMM colonies were scored as positive. […]

Method for HSC from old (22 m) mice: Mice. […] For the aging studies, 3-4 months (labeled as 4 m) and 25-30 m (labeled as >25 m) male mice were used in the young and old group, respectively. […] For GLA supplementation, old mice (>25 m) were injected with either saline or GLA (1mg/kg bw) for 40 days.
Colony formation and serial re-plating assays. Sorted mouse HSC (180 cells Lin−/cKit+/Scal+/CD48−/CD150+) or CD34-enriched human HSPC (5,000 cells) were plated into methylcellulose media ([sequence] Technologies, MethoCult M 3434 for mouse or MethoCult H4434 for human) according to the manufacturer's protocols. Colonies were scored after 10 to 12 days for mouse and 14 to 16 days for human cells using an Inverted Infinity and Phase Contrast Microscope (Fisher Scientific). […] Where indicated, media was supplemented with 100 nM FADS2 inhibitor SC-26196 (Sigma, PZ0176), 100 μM γ-linolenic fatty acid (GLA) (Sigma, L2378), 100 μtM NAC (Sigma, A7250) or 5 mM Methyl-pyruvate (Sigma, 371173).

As for `Cc1nnc(-c2ccc(-c3cnc4cc(Cl)ccc4n3)cc2)[nH]1` [CA77.43, 6-chloro-2-(4-(5-methyl-4H-1,2,4-triazol-3-yl)phenyl)quinoxaline], the “long-term HSCs (LT-HSC; CD90+, CD49f+, CD34+, CD38−, Lin-)” value (from here on “long-term HSCs”) in experiment [1] is “significantly more long-term HSCs (LT-HSC) than vehicle”.
As for `CC(=O)Nc1ccc(-c2cnc3cc(Cl)ccc3n2)cc1` [CA77.1, N-(4-(6-chloroquinoxalin-2-yl)phenyl)acetamide], in experiment [1] (AML patient derived specimen, 72 hours vs vehicle), the “number of phenotypical HSCs by FACS” value is “detectable and significant increase in HSCs”. Besides, the “long-term HSCs” value in experiment [1] is listed as “significantly more long-term HSCs (LT-HSC) than vehicle”.
Regarding `N#CC(CCCN1CCN(/N=C/c2cccnc2)CC1)(c1ccccc1)c1ccccc1` [SC-26196], the “self-renewal ability of control HSC (colony numbers)” value in the experiment on Ctrl and L2AKO HSC (control cells, 100 nM FADS2 inhibitor SC-26196, first plating) is recorded as “sufficient to reduce self-renewal ability of control cells”.
With `O=c1[nH]cc(F)c(=O)[nH]1` [5FU, 5-fluorouracil], in experiment [2] (after 5FU injection), the “time of CMA returning to basal levels in HSC” value turned out to be 16 days and the “time of maximal CMA upregulation in HSC” value was determined as 8 days. Further, in experiment [2] (after single injection of 5FU), the “CMA activity in HSC (Dendra puncta per cell)” value is reported as “further upregulate CMA”.
polyI:C: in experiment [2] (48 hours after injection of PolyI:C vs vehicle), the “CMA activity in HSC (Dendra puncta per cell)” value is “upregulated CMA”.
For `CC(=O)N[C@@H](CS)C(=O)O` [NAC, N-acetylcysteine], the “long-term colony initiation abilities of L2AKO HSC (total colony numbers in 3rd plating)” value with Ctrl and L2AKO HSC (L2AKO HSC, NAC from the 1st plating) is on record as “restored their ex vivo long-term colony initiation abilities”.
With `CCCCC/C=C\C/C=C\C/C=C\CCCCC(=O)O` [GLA, γ-linolenic acid], the “self-renewal capacity of CMA-defective (L2AKO) HSC (colony numbers)” value in the experiment on Ctrl and L2AKO HSC (L2AKO HSC, GLA supplemented media, ex vivo) is “restored their self-renewal capacity ex vivo”. In addition, the “HSC function by colony formation” value with HSC from old (22 m) mice is reported as “improved HSC function as assessed by colony formation”. Besides, in experiment [3], the “number of functional human stem cells in long-term cultures (LTC-IC)” value is “increased the number of functional human stem cells in long-term cultures”.
Regarding `Clc1ccc2nc(-c3ccc(Nc4cnccn4)cc3)cnc2c1` [CA77.36, N-(4-(6-chloroquinoxalin-2-yl)phenyl)pyrazin-2-amine], the “long-term HSCs” value in experiment [1] is on record as “significantly more long-term HSCs (LT-HSC) than vehicle”.

Values taken from US20240156872A1, “Use of Chaperone-Mediated Autophagy Activators For Treating Or Preventing Blood Cancers And Myelodysplastic Syndromes And Enriching Hematopoietic Stem Cell Populations” (ALBERT EINSTEIN COLLEGE OF MEDICINE, priority 2021, published 2024).
